Results from ChEMBL document CHEMBL1201862, “PubChem BioAssay data set” (2004).
Calls of active or inactive are those of the source.

What was measured:
Assay type in all cases: functional
[1] = target: Serine/threonine-protein kinase Nek2 (Homo sapiens, UniProt P51955)
[2] = target: Dual specificity tyrosine-phosphorylation-regulated kinase 1A (Homo sapiens, UniProt Q13627);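 further: measured against DYRK1A as one member of a broad kinome profiling panel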
[3] = target: Cyclin-dependent kinase 5 (Homo sapiens, UniProt Q00535);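 further: CDK5 measured as one member of a kinase profiling panel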
[4] = target: Platelet-derived growth factor receptor alpha (Homo sapiens, UniProt P16234); assay: Navigating the Kinome. Panel member name: PDGFRA
[5] = target: T1, Serine/threonine-protein kinase Chk1 (Homo sapiens, UniProt O14757);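 further: measured as one member of a kinome-wide kinase profiling panel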
T1 sequence (O14757 whole entry): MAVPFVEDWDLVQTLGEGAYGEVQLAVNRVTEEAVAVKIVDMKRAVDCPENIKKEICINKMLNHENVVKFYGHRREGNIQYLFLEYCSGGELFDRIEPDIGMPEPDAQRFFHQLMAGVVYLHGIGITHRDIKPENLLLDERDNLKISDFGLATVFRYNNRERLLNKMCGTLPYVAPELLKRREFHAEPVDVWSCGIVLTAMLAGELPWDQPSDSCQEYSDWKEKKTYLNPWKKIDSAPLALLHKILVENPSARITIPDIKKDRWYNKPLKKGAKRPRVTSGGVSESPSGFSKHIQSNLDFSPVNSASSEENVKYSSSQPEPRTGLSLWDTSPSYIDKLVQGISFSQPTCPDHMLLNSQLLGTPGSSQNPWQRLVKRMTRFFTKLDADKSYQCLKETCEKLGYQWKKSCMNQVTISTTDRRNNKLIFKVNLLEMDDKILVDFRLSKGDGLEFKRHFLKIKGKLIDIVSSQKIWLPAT

[6] = target: Dual specificity tyrosine-phosphorylation-regulated kinase 1B (Homo sapiens, UniProt Q9Y463); assay: Navigating the Kinome. Panel member name: DYRK1B
[7] = target: Dual specificity protein kinase CLK4 (Homo sapiens, UniProt Q9HAZ1)
[8] = target: Leucine-rich repeat serine/threonine-protein kinase 2 (Homo sapiens, UniProt Q5S007);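 further: value from a broad kinome-wide panel profiling study in which LRRK2 was one of the kinases tested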

Measured: Ki

Serine/threonine-protein kinase Nek2, sequence (P51955 whole entry): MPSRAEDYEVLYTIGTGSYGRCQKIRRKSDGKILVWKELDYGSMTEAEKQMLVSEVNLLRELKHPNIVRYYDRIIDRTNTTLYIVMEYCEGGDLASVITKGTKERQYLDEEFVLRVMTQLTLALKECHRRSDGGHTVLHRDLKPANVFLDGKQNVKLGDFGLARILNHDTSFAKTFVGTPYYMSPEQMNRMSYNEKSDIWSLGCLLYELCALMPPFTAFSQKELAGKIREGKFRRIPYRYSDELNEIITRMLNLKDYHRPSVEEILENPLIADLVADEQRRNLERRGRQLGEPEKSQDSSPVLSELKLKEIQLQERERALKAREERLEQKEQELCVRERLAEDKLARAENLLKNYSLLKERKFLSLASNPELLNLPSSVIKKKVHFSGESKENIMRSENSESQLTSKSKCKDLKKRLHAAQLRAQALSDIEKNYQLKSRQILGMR
Dual specificity protein kinase CLK4, sequence (Q9HAZ1 whole entry): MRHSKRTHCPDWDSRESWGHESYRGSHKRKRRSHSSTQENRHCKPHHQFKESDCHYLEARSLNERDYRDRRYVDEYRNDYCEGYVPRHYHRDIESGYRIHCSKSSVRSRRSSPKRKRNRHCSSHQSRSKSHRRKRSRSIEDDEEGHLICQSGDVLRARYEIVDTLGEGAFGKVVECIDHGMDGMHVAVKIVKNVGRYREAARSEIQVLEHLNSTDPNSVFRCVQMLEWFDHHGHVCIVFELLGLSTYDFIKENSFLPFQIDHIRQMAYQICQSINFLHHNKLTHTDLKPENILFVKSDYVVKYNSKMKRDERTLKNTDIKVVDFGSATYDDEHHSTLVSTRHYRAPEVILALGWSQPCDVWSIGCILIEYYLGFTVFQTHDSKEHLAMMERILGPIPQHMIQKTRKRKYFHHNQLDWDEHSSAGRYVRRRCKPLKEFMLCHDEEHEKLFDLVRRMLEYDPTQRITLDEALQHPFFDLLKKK
Cyclin-dependent kinase 5, sequence (Q00535 whole entry): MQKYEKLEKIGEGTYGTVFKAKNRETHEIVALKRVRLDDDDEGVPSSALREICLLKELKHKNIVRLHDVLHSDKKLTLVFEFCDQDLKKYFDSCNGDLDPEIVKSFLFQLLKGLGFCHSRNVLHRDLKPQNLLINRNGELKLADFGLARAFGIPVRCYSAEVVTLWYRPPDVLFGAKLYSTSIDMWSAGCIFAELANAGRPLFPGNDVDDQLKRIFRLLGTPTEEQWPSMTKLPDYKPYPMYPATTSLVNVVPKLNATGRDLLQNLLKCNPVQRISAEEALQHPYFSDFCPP
Dual specificity tyrosine-phosphorylation-regulated kinase 1B, sequence (Q9Y463 whole entry): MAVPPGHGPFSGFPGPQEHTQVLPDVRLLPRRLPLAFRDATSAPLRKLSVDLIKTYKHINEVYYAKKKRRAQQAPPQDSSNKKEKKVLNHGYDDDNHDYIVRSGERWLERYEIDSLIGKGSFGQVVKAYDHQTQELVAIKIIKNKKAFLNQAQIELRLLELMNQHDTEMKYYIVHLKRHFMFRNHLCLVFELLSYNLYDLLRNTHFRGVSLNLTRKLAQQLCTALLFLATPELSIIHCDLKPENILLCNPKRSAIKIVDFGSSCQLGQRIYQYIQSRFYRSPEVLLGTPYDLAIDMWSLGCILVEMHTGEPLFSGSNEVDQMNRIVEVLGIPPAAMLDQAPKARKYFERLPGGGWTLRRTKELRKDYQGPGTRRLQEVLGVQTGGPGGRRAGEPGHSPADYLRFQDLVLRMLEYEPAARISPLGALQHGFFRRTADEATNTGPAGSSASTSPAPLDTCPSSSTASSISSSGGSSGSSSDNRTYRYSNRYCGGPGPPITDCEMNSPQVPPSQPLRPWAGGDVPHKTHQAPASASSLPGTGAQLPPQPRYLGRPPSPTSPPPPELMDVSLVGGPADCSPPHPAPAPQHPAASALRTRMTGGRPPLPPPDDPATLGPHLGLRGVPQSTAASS
Platelet-derived growth factor receptor alpha, sequence (P16234 whole entry): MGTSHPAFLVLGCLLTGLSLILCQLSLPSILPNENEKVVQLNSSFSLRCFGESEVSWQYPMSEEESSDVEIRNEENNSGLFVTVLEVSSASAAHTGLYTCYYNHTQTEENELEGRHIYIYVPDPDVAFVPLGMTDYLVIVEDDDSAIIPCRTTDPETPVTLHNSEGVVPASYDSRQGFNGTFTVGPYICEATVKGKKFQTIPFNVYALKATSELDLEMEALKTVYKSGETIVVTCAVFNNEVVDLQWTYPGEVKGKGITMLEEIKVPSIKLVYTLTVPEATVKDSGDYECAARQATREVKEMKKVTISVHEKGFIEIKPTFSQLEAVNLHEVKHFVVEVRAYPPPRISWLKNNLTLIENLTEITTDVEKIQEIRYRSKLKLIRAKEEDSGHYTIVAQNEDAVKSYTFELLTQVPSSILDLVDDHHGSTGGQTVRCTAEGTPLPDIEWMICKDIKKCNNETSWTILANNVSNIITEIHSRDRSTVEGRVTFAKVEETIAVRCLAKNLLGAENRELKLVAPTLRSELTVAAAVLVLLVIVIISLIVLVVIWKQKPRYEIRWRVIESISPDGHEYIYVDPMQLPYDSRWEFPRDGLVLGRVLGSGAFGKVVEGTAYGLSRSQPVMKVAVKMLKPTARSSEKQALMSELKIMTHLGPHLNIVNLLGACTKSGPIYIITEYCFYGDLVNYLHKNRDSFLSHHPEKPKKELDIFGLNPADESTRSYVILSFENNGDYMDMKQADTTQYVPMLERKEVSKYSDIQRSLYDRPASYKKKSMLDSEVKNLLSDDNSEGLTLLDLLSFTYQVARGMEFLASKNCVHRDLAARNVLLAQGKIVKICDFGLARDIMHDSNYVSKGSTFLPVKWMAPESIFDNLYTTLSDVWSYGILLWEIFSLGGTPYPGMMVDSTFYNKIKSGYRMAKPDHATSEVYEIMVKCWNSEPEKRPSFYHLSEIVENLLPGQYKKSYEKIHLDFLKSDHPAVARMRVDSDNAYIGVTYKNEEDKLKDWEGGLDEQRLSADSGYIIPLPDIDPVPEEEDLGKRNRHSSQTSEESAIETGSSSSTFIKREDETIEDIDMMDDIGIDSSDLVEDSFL

Cc1cc2c(c(C#N)c1C)OC1(CCCCC1)C(N)C2=O (centres undefined)
active: [1] 5.01 µM | [2] 1.58 µM

Nc1nnc2sc3ccccc3n12
active: [3] 39.8 µM | [4] 63.1 µM | [2] 39.8 µM | [5] 39.8 µM | [6] 63.1 µM | [7] 31.6 µM | [8] 79.4 µM
